Values joined by “and” are separate entries in the source; they are usually repeats but may differ in a detail not shown here. Equal entries are not always repeated. Residues, ends and D or L forms follow the SMILES beside them. No end group written: not given here. *: point of attachment. FITC = O=C1OC2(c3ccc(O)cc3Oc3cc(O)ccc32)c2ccc(NC(=S)*)cc21; Ahx = NCCCCCC(=O)O; βAla = NCCC(=O)O

As usually defined, the Kd is the concentration at which binding is half-saturated.

Data set [1] is described as follows: Serum stability in FBS (RP-HPLC). In kind it is in vitro ADME. The following applies: 25% fetal bovine serum, 25% FBS, 37 °C, peptide 80 µM, RP-HPLC UV peak area, average of two assays. How it is done: The PSscan255 peptide was mixed with 25% fetal bovine serum (FBS, from Merck group, Milan, Italy), previously incubated at 37 °C for 15 min, to obtain a peptide concentration equal to 80 µM in the end. These mixtures were kept at 37 °C and, at several time intervals (0, 1, 2, 3, 4, 5, 17, and 19 h), aliquots of the incubating solutions (50 µL) were quenched by using 15% trifluoroacetic acid (TFA) (50 µL) and then incubated at 2 °C for 15 min. Next, serum proteins were discarded by centrifugation (15 min at 3000 rpm), and samples were subjected to reverse-phase high-performance liquid chromatography (RP-HPLC). RP-HPLC runs were conducted with an HPLC LC-4000 series (Jasco) equipped with a UV detector by using a C18-Kinetek column (Phenomenex, Milan, Italy). Gradient elution was conducted at 25 °C; the gradient started with buffer A, consisting of water with 0.1% TFA. Then buffer B, consisting of acetonitrile with 0.1% TFA, was added from 5 to 70% in 20 min. The peak areas were integrated at diverse time lapses. Two assays were performed, and data points represent average values over the two experiments.

The target in data set [2] is T1, Ship2-Sam (Homo sapiens, UniProt O15357).
T1 construct: The Sam (Sterile alpha motif) domain of the lipid phosphatase Ship2 (Ship2-Sam); made in house; host or cells: E. coli
T1 sequence (O15357 1196-1258 limits assumed): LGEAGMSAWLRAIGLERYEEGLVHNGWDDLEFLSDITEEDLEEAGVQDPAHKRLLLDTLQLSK
Briefly: BLI (BioLayer Interferometry) interaction assay. The following applies: biotinylated-pegylated PSscan255 immobilized on streptavidin biosensor; Ship2-Sam 20-500 µM; 1:1 Langmuir model, global analysis; read-out: KD for binding to Ship2-Sam. Here is the method:
The peptide was purchased in the biotinylated–pegylated form (Table S4) and immobilized on a streptavidin-coated biosensor. Kinetic experiments, carried out at diverse Ship2-Sam concentrations in the range of 20–500 µM (Figure S19), provided dose–response signals, allowing the estimation of a KD value equal to (70 ± 40) µM.
For BLI interaction assays, the Sartorius Octet® N1 System and streptavidin (SA)-coated biosensor tips (Sartorius Italy S.r.l., Grassina-Bagno a Ripoli (FI), Italy) were employed. SA biosensor tips were first hydrated in 1X PBS buffer; then, to achieve ligand immobilization, the tips were dipped, for 300 sec with 1000 rpm agitation, into 4 µL of biotinylated–pegylated PSscan255 solution (50 µg/mL). Following peptide loading, each tip was placed in contact, for 300 s with a 1000 rpm agitation speed, with 4 µL of Ship2-Sam protein at several concentrations (20, 50, 100, 300, and 500 µM). All mathematical manipulations were handled by the Octet Analysis Studio 12.2 software from Sartorius. A 1:1 Langmuir binding model was used for data fitting, and the KDs were obtained through the global analysis mode.
Background: BLI is a label-free optical method that tracks binding on a fibre tip over time.

Data set [3] concerns the target T1, Ship2-Sam. Briefly: NMR chemical shift perturbation studies with Ship2-Sam. The conditions noted are these: 1D 1H: Ship2-Sam 27 µM, peptide 273 µM; 1H-15N HSQC: Ship2-Sam 20 µM, peptide 200 µM; PBS, 298 K. The class given is binding. How it is done: The interaction between diverse PSscan peptides and Ship2-Sam was assessed by NMR chemical shift perturbation (CSP) studies using both 1D [^1H] and 2D [^1H-^15N] HSQC experiments (Figure 4 and Figures S7–S10).
[^1H-^15N] HSQC spectra for chemical shift perturbation studies were acquired with ^15N labeled Ship2-Sam (20 μM concentration) in the absence and presence of PSscan255, PSscan258, and PSscan266 peptides (200 μM concentrations). For these experiments, concentrated peptide stocks in PBS were diluted in protein samples. The pH was checked upon each peptide’s addition and eventually carefully adjusted with NaOH or HCl solutions to avoid pH variations in the NMR samples. Chemical shift perturbation studies with 1D [^1H] NMR experiments were similarly recorded for Ship2-Sam alone (27 μM concentration) and in the presence of PSscan peptides (273 μM concentration). Spectra under identical experimental conditions were recorded for Ship2-Sam alone and following the addition of the control peptides.

A short description of data set [4]: Peptide self-aggregation by 1D 1H NMR at diverse concentrations. The class given is physicochemical. The following applies: 1D 1H NMR in PBS/D2O (90/10 v/v), peptide 50-300 µM, constant pH. Here is the method: In addition, to better understand results from NMR interaction assays, we evaluated whether peptide self-aggregation phenomena could occur in the peptide concentration range employed. Thus, NMR spectra were recorded for each PSscan peptide at diverse concentrations in the range of 50–300 µM (Figure 5, Figures S13 and S14). As all three peptides are rich in aromatic and positively charged residues, self-aggregation can occur not only through π–π stacking interactions but also through cation–π contacts between diverse peptide units. To better identify the signals of aromatic protons within 1D [^1H] NMR spectra in PBS, hydrogen/deuterium exchange experiments were conducted (Figure 5 and Figure S14). Indeed, an excess of D2O in solution induces the disappearance of HN and other exchangeable exposed protons, while aromatic and side-chain protons remain clearly visible (Figure 5 and Figure S14). When recording NMR spectra of peptides at different concentrations, particular care was also taken to keep the pH at a constant value to avoid undesired chemical shift changes.

The test system of a further data set is PC-3 cells. The following applies: 50 µM, 4 h, fluorescence (deconvolution) microscopy.
For another data set, the target named is T2, PSscan255 (synthetic construct, also: biotinylated and pegylated, positions not given here).
T2 chain: KREWYKFLANKRIAY
Nature of the data set: BLI.

Procedure for PC-3 cells: The FITC-TAT-PSscan255 peptide (50 μM) was added for 4 h to PC-3 cells (5 × 10^4/mL) that were positioned on coverslips inside a Petri dish. Following incubation, cells were first washed three times with PBS and then fixed in 4% paraformaldehyde in PBS for 15 min. Next, cell permeabilization was achieved via treatment with 0.3% Triton-X 100 in PBS for 30 min. After blocking for 15 min with 2% bovine serum albumin, the coverslips were marked with phalloidin-iFluor 594 (Abcam, Milan, Italy), which was diluted 1:1000 for 1 h. After three extra rinses with PBS, the nuclei were stained with Hoechst 33342 (Thermo Fisher Scientific, Milan, Italy), diluted 1:2000, and incubated for 15 min in the dark. Lastly, the coverslips were mounted onto microscope slides with Mowiol (Sigma from Merck Group, Milan, Italy) and permitted to cure for at least 48 h before undergoing microscopy imaging. Images were taken with a Nikon Eclipse Ti2-E inverted research microscope (Nikon Instruments, Melville, NY, USA) using standard phase contrast, epifluorescence microscopy, and deconvolution. Image acquisition was accomplished with an Andor Zyla 4.2+ sCMOS high-sensitivity monochrome camera and managed by Nikon NIS-Elements Advanced Research (AR) image acquisition and analysis software.

Turning to `CC[C@H](C)[C@H](NC(=O)[C@H](CCCNC(=N)N)NC(=O)[C@H](CCCCN)NC(=O)[C@H](CC(N)=O)NC(=O)[C@H](C)NC(=O)[C@H](CC(C)C)NC(=O)[C@H](Cc1ccccc1)NC(=O)[C@H](CCCCN)NC(=O)[C@H](Cc1ccc(O)cc1)NC(=O)[C@H](Cc1c[nH]c2ccccc12)NC(=O)[C@H](CCC(=O)O)NC(=O)[C@H](CCCNC(=N)N)NC(=O)[C@H](CCCCN)NC(C)=O)C(=O)N[C@@H](C)C(=O)N[C@@H](Cc1ccc(O)cc1)C(N)=O` [PSscan255] (Ac-KREWYKFLANKRIAY-NH2), the remaining at 5 h, 80 µM in data set [1] (5 h, read-out: Peptide recovered after incubation with FBS) came to 80%. The remaining at 19 h, 80 µM in data set [1] (19 h, read-out: Peptide not degraded after incubation with FBS) came out at 50%. In addition, the Kd at Ship2-Sam [2] is ~70 µM and 70 µM.

On to `CC[C@H](C)[C@H](NC(=O)[C@H](CCCNC(=N)N)NC(=O)[C@H](CCCCN)NC(=O)[C@H](CC(N)=O)NC(=O)[C@H](C)NC(=O)[C@H](CCSC)NC(=O)[C@H](Cc1ccccc1)NC(=O)[C@H](CCCCN)NC(=O)[C@H](Cc1ccc(O)cc1)NC(=O)[C@H](Cc1c[nH]c2ccccc12)NC(=O)[C@H](CC(=O)O)NC(=O)[C@H](CCCNC(=N)N)NC(=O)[C@H](CCCCN)NC(C)=O)C(=O)N[C@@H](C)C(=O)N[C@@H](Cc1ccc(O)cc1)C(N)=O` [PSscan258] (Ac-KRDWYKFMANKRIAY-NH2), for which the “Interaction with Ship2-Sam by chemical shift perturbation” value at Ship2-Sam [3] is listed as “weakest”.

In the case of `CC[C@H](C)[C@H](NC(=O)[C@H](CCCNC(=N)N)NC(=O)[C@H](CCCCN)NC(=O)[C@H](CC(N)=O)NC(=O)[C@H](C)NC(=O)[C@H](CCSC)NC(=O)[C@H](Cc1ccccc1)NC(=O)[C@H](CCCCN)NC(=O)[C@H](Cc1ccc(O)cc1)NC(=O)[C@H](Cc1c[nH]c2ccccc12)NC(=O)[C@H](CCC(=O)O)NC(=O)[C@H](CCCNC(=N)N)NC(=O)[C@H](CCSC)NC(C)=O)C(=O)N[C@@H](C)C(=O)N[C@@H](Cc1ccc(O)cc1)C(N)=O` [PSscan266] (Ac-MREWYKFMANKRIAY-NH2), in data set [4], the Self-aggregation result is “could be affected by a certain amount of self-aggregation”. In addition, at Ship2-Sam [3], the “Interaction with Ship2-Sam by chemical shift perturbation” value is reported as “weak interactions”.

Take `CSCC[C@H](NC(=O)[C@H](Cc1ccccc1)NC(=O)[C@H](CCCCN)NC(=O)[C@H](CC(=O)O)NC(=O)[C@H](CCC(=O)O)NC(=O)[C@H](CCCNC(=N)N)NC(=O)[C@H](CCCNC(=N)N)NC(=O)[C@@H](NC(=O)[C@@H]1CCCN1C(=O)CNC(C)=O)[C@@H](C)O)C(=O)N[C@@H](Cc1ccc(O)cc1)C(=O)N[C@@H](Cc1ccccc1)C(N)=O` [CTRL, reference compound] (Ac-GPTRREDKFMYF-NH2): at Ship2-Sam [3], the “Interaction with Ship2-Sam by chemical shift perturbation” value is on record as “did not reveal high-affinity binding”.

On to `CC[C@H](C)[C@H](NC(=O)[C@H](CCCNC(=N)N)NC(=O)[C@H](CCCCN)NC(=O)[C@H](CC(N)=O)NC(=O)[C@H](C)NC(=O)[C@H](CC(C)C)NC(=O)[C@H](Cc1ccccc1)NC(=O)[C@H](CCCCN)NC(=O)[C@H](Cc1ccc(O)cc1)NC(=O)[C@H](Cc1c[nH]c2ccccc12)NC(=O)[C@H](CCC(=O)O)NC(=O)[C@H](CCCNC(=N)N)NC(=O)[C@H](CCCCN)NC(=O)CNC(=O)CNC(=O)[C@H](CCC(N)=O)NC(=O)[C@@H]1CCCN1C(=O)[C@@H]1CCCN1C(=O)[C@H](CCCNC(=N)N)NC(=O)[C@H](CCCNC(=N)N)NC(=O)[C@H](CCCNC(=N)N)NC(=O)[C@H](CCC(N)=O)NC(=O)[C@H](CCCNC(=N)N)NC(=O)[C@H](CCCNC(=N)N)NC(=O)[C@H](CCCCN)NC(=O)[C@H](CCCCN)NC(=O)[C@H](CCCNC(=N)N)NC(=O)CNC(=O)CCNC(=O)CCCCCNC(=S)Nc1ccc2c(c1)C(=O)OC21c2ccc(O)cc2Oc2cc(O)ccc21)C(=O)N[C@@H](C)C(=O)N[C@@H](Cc1ccc(O)cc1)C(N)=O` [FITC-TAT-PSscan255] ({FITC-Ahx-βAla}-GRKKRRQRRRPPQGGKREWYKFLANKRIAY-NH2), for which the “Cellular localization after uptake” value with PC-3 cells is “positioned in the cytoplasm”.

B1: Ship2-Sam Sam (protein)
chain: ASGLGEAGMSAWLRAIGLERYEEGLVHNGWDDLEFLSDITEEDLEEAGVQDPAHKRLLLDTLQLSK
For the molecule B1, binding in the data set with PSscan255 was put at a Kd of 70 µM.

For the origin of these results see publication PMC11476629, “Exploring a Potential Optimization Route for Peptide Ligands of the Sam Domain from the Lipid Phosphatase Ship2” (International Journal of Molecular Sciences, 2024).
